Reference: the supplement of paper PMC4862054

The molecules below were run on BT-474 (assay: normalised response (% of control), CellTiter-Glo; higher = more viable cells (100 = DMSO, 0 = benzethonium chloride kill control)). Settings: incubation time: 72 h.
How it was run: (§1)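 Each entry is the normalised signal at a single concentration within a series. The series comprised 5 concentrations in 10-fold steps over a compound-specific 10,000-fold range, placed in 384-well plates into which breast cancer cell lines were seeded as 20 µl suspension and incubated 72 h. CellTox Green (485/520 nm) fluorescence and then CellTiter-Glo luminescence were read, with signals normalised per plate to 0.1 % DMSO (100) and a positive kill control (0).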
CN(Cc1cnc2nc(N)nc(N)c2n1)c1ccc(C(=O)N[C@@H](CCC(=O)O)C(=O)O)cc1 [Methotrexate] (5000 nM) gave a normalised response of 78.1%.
In the case of O=[N+]([O-])c1ccc2c(c1)S(=O)(=O)C=C2 [Stattic] (5000 nM), the normalised response is reported as 68.9%.
In the case of CC(C)n1cnc2c(NCCc3ccc(O)cc3)nc(-c3csc4ccccc34)nc21 [StemRegenin 1] (1000 nM), the normalised response is reported as 108%.

The molecules below were run on BT-549 in the same assay as above. Settings: incubation time: 72 h.
How it was run: as §1
CCn1c(C(=O)N(C2CC2)C2CC2)cc2c3c(ncn3C)c(Nc3cc(C)n(C)n3)nc21 (1000 nM) was tested, and the normalised response was 98.2%.
In the case of CCN(CC)CCCC(C)Nc1ccnc2cc(Cl)ccc12 (configuration not stated) [Chloroquine] (10000 nM), the normalised response is reported as 73.3%.
Molecule O=C(O)CNC(=O)c1c(O)c2ccccc2n(Cc2ccccc2)c1=O [IOX-2] (5000 nM) has a normalised response of 96.2%.
CN(C)C(=N)NC(=N)N [Metformin] (10000 nM) gave a normalised response of 98.4%.
CN(Cc1cnc2nc(N)nc(N)c2n1)c1ccc(C(=O)N[C@@H](CCC(=O)O)C(=O)O)cc1 [Methotrexate] (5000 nM) was tested, and the normalised response was 97.8%.
In the case of O=[N+]([O-])c1ccc2c(c1)S(=O)(=O)C=C2 [Stattic] (5000 nM), the normalised response is reported as 0.47%.
Molecule CC(C)n1cnc2c(NCCc3ccc(O)cc3)nc(-c3csc4ccccc34)nc21 [StemRegenin 1] (1000 nM) has a normalised response of 77.9%.

The molecules below were run on CAL-120 in the same assay as above. Settings: incubation time: 72 h.
How it was run: as §1
For CCn1c(C(=O)N(C2CC2)C2CC2)cc2c3c(ncn3C)c(Nc3cc(C)n(C)n3)nc21 (1000 nM), the normalised response was 96.4%.
Molecule CCN(CC)CCCC(C)Nc1ccnc2cc(Cl)ccc12 (configuration not stated) [Chloroquine] (10000 nM) has a normalised response of 50.6%.
With O=C(O)CNC(=O)c1c(O)c2ccccc2n(Cc2ccccc2)c1=O [IOX-2] (5000 nM) the normalised response was 101%.
Work on CN(C)C(=N)NC(=N)N [Metformin] (10000 nM) yielded a normalised response of 106%.
CN(Cc1cnc2nc(N)nc(N)c2n1)c1ccc(C(=O)N[C@@H](CCC(=O)O)C(=O)O)cc1 [Methotrexate] (5000 nM) showed a normalised response of 21.1%.
O=[N+]([O-])c1ccc2c(c1)S(=O)(=O)C=C2 [Stattic] (5000 nM) gave a normalised response of 88.3%.
For CC(C)n1cnc2c(NCCc3ccc(O)cc3)nc(-c3csc4ccccc34)nc21 [StemRegenin 1] (1000 nM), the normalised response was 99.9%.

What follows are molecules tested on CAL-148 in the same assay as above. Settings: incubation time: 72 h.
How it was run: as §1
Molecule CCn1c(C(=O)N(C2CC2)C2CC2)cc2c3c(ncn3C)c(Nc3cc(C)n(C)n3)nc21 (1000 nM) has a normalised response of 96.6%.
Work on CCN(CC)CCCC(C)Nc1ccnc2cc(Cl)ccc12 (configuration not stated) [Chloroquine] (10000 nM) yielded a normalised response of 60.2%.
O=C(O)CNC(=O)c1c(O)c2ccccc2n(Cc2ccccc2)c1=O [IOX-2] (5000 nM) showed a normalised response of 100%.
Molecule CN(C)C(=N)NC(=N)N [Metformin] (10000 nM) has a normalised response of 98.3%.
CN(Cc1cnc2nc(N)nc(N)c2n1)c1ccc(C(=O)N[C@@H](CCC(=O)O)C(=O)O)cc1 [Methotrexate] (5000 nM) gave a normalised response of 100%.
Molecule O=[N+]([O-])c1ccc2c(c1)S(=O)(=O)C=C2 [Stattic] (5000 nM) has a normalised response of 46.4%.
CC(C)n1cnc2c(NCCc3ccc(O)cc3)nc(-c3csc4ccccc34)nc21 [StemRegenin 1] (1000 nM) gave a normalised response of 99.3%.

Each molecule was assayed on CAL-51 in the same assay as above. Settings: incubation time: 72 h.
How it was run: as §1
Work on CCn1c(C(=O)N(C2CC2)C2CC2)cc2c3c(ncn3C)c(Nc3cc(C)n(C)n3)nc21 (1000 nM) yielded a normalised response of 70.1%.
For CCN(CC)CCCC(C)Nc1ccnc2cc(Cl)ccc12 (configuration not stated) [Chloroquine] (10000 nM), the normalised response was 51.7%.
With O=C(O)CNC(=O)c1c(O)c2ccccc2n(Cc2ccccc2)c1=O [IOX-2] (5000 nM) the normalised response was 85.1%.
Work on CN(C)C(=N)NC(=N)N [Metformin] (10000 nM) yielded a normalised response of 75.2%.
Work on CN(Cc1cnc2nc(N)nc(N)c2n1)c1ccc(C(=O)N[C@@H](CCC(=O)O)C(=O)O)cc1 [Methotrexate] (5000 nM) yielded a normalised response of 56.8%.
With O=[N+]([O-])c1ccc2c(c1)S(=O)(=O)C=C2 [Stattic] (5000 nM) the normalised response was 0.16%.
CC(C)n1cnc2c(NCCc3ccc(O)cc3)nc(-c3csc4ccccc34)nc21 [StemRegenin 1] (1000 nM) was tested, and the normalised response was 121%.

Each molecule was assayed on CAL-85-1 in the same assay as above. Settings: incubation time: 72 h.
How it was run: as §1
Work on CCn1c(C(=O)N(C2CC2)C2CC2)cc2c3c(ncn3C)c(Nc3cc(C)n(C)n3)nc21 (1000 nM) yielded a normalised response of 99.5%.
